In brackets after ≈: the same amount, converted by molar mass.
Legend:
[1] = Metabolic stability in human liver microsome assessed as compound remaining at 500 uM measured at 10 mins by LC-MS/MS method; assay type: ADME; conditions: liver microsomes, read-out: Stability
[2] = Apparent permeability of the compound in human Caco-2 cells at 25 uM measured after 2 hrs by LC-MS/MS analysis; assay type: ADME, cell-based
[3] = Solubility of compound in PBS at pH 7.0 at 100 uM measured for 20 mins by LC-MS/MS analysis; assay type: physicochemical
[4] = target: T1, Amine oxidase [flavin-containing] A (Homo sapiens, UniProt P21397); assay: Inhibition of human MAO-A measure after 1 hr by microplate reader analysis
T1 sequence (P21397 whole entry): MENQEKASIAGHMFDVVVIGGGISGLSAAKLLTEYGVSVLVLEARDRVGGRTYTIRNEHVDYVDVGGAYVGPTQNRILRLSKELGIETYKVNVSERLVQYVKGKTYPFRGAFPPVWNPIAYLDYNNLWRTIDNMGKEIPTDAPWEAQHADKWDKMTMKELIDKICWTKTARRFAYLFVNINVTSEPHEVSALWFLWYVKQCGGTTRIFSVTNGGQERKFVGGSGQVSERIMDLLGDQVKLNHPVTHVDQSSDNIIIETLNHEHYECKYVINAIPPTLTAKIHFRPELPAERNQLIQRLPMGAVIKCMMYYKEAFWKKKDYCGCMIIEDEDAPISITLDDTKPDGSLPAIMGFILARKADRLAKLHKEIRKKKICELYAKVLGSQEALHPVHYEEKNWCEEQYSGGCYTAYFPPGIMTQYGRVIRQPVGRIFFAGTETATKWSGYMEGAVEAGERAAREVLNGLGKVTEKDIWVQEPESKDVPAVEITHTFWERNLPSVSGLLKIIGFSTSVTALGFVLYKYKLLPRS

[5] = target: T2, MAO-B (amine oxidase [flavin-containing] B) (Homo sapiens, UniProt P27338); assay: Inhibition of human MAO-B assessed as residual activity at 10 uM relative to control; conditions: read-out: Activity
T2 sequence (P27338 whole entry): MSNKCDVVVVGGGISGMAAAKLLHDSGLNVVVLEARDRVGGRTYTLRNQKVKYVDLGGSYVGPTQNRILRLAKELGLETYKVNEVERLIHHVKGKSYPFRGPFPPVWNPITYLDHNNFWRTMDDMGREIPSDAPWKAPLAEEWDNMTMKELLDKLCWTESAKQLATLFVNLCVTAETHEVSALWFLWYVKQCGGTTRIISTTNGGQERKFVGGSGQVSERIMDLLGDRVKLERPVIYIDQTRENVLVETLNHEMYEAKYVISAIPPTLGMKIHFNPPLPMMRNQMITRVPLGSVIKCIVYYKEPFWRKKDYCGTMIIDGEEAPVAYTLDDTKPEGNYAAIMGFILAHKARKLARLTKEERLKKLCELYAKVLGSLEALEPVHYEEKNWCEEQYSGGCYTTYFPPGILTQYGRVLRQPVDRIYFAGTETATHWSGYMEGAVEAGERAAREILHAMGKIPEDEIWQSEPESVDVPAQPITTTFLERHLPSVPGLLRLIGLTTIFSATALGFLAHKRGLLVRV

[6] = Metabolic stability in mouse liver microsome assessed as compound remaining at 500 uM measured at 60 mins by LC-MS/MS method; assay type: ADME; conditions: liver microsomes, read-out: Stability
[7] = target: T3, Amine oxidase [flavin-containing] B (Homo sapiens, UniProt P27338); assay: Inhibition of human MAO-B measure after 1 hr by microplate reader analysis
T3 sequence (P27338 whole entry): T2 sequence (P27338 whole entry)

[8] = Metabolic stability in mouse liver microsome assessed as compound remaining at 500 uM measured at 10 mins by LC-MS/MS method; assay type: ADME; conditions: liver microsomes, read-out: Stability
[9] = Lipophilicity, log D of the compound at pH 7.4; assay type: physicochemical; conditions: buffer
SH-SY5Y = assay: Cytotoxicity against human SH-SY5Y cells assessed as inhibition of cell viability at 10 uM after 24 hrs by MTS assay relative to control; assay type: functional
[10] = Metabolic stability in human liver microsome assessed as compound remaining at 500 uM measured at 60 mins by LC-MS/MS method; assay type: ADME; conditions: liver microsomes, read-out: Stability
[11] = target: T1, Amine oxidase [flavin-containing] A; assay: Inhibition of recombinant human MAO-A
Rattus norvegicus = species: Rattus norvegicus; assay: Inhibition of rat brain stem MAO at 2 mM using serotonin as substrate incubated for 30 mins by fluorometric analysis relative to control; assay type: tissue-based; conditions: Brainstem
[12] = target: T4, Amine oxidase [flavin-containing] B (Mus musculus, UniProt Q8BW75); assay: Inhibition of mouse MAO-B
T4 sequence (Q8BW75 whole entry): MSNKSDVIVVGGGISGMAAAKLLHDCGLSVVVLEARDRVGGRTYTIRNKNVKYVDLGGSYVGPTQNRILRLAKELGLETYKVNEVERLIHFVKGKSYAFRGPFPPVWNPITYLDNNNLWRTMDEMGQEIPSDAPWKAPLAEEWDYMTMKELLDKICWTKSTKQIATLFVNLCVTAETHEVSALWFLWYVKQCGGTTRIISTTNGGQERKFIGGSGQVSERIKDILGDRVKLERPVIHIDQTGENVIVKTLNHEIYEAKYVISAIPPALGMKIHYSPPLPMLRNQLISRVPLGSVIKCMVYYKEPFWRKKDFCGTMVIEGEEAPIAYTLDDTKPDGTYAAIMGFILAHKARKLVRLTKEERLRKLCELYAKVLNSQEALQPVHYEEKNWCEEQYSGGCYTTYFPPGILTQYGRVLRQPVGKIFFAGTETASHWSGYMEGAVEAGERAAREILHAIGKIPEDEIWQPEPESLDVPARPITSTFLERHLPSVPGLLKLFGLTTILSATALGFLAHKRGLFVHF

[13] = target: T5, Amine oxidase [flavin-containing] A (Mus musculus, UniProt Q64133); assay: Inhibition of mouse MAO-A
T5 sequence (Q64133 whole entry): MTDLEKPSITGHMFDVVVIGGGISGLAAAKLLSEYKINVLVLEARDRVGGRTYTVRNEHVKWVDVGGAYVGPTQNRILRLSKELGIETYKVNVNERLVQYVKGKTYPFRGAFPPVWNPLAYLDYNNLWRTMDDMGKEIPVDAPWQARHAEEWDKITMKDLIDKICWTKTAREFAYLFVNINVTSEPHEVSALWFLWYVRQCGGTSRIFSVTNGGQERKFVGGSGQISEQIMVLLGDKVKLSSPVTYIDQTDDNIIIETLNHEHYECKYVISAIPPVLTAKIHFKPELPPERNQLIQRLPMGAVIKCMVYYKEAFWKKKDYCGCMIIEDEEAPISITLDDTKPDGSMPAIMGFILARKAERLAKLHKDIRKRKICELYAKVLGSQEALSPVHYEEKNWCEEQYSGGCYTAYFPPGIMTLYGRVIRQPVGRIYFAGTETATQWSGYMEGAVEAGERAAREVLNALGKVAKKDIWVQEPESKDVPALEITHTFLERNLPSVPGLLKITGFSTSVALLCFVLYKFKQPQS

remaining at 10 min [1] [%]	Papp at 2 h, 25 µM [2] [×10⁻⁶ cm/s]	solubility at 20 min, 100 µM [3] [µM]	IC50 [4] [µM]	activity at 10 µM [5] [%]	remaining at 1 h [6] [%]	IC50 [7] [µM]	remaining at 10 min [8] [%]	logD [9]	remaining at 1 h [10] [%]	IC50 [11] [µM]	SMILES	Activity (SH-SY5Y) [%]	inhibition (Rattus norvegicus) [%]	IC50 [12] [µM]	IC50 [13] [µM]
61	2.8	6.6 (≈ 1.96 µg/mL)	> 100	14	0.4	1.55	12.6	3.7	9.2		COc1cc2c(cc1OC)CN(c1ccc(C=O)cc1)CC2	99			
91.3	34.4	89.8 (≈ 28.1 µg/mL)			33.8		83.4	3.4	78.4		COc1cc2c(cc1OC)C(C)N(c1ccc(CO)cc1)CC2 (centres undefined)				
70.8	38.8	0.8 (≈ 0.216 µg/mL)		89	0.2		9.9	3.7	17.7		COc1cc2c(cc1OC)CN(c1ccccn1)CC2				
98.7	< 0.1	< 0.5		86	26.9		83.1	5.7	62.2		COc1cc2c(cc1OC)CN(c1cc(C(F)(F)F)cc(C(F)(F)F)c1)CC2				
66.1	7.4	22.2 (≈ 6.91 µg/mL)			1		15.5	4	18		COc1cc2c(cc1OC)C(C)N(c1ccc(C=O)cc1)CC2 (centres undefined)				
7.2	2.1	12.7 (≈ 4.16 µg/mL)		103	0.1		0.4	4.3	0.2		COC(=O)c1ccccc1N1CCc2cc(OC)c(OC)cc2C1				
			> 100	24		5.1					COc1cc2c(cc1OC)CN(c1cc(F)cc(F)c1)CC2	97.3			
56.8	20.4	20.3 (≈ 5.83 µg/mL)	> 100	57	0.6	13.5	2.5	4.5	56.9		COc1cc2c(cc1OC)CN(c1ccc(F)cc1)CC2	104			
										8.1	COc1cc2c(cc1OC)CN(CCCOc1ccc(C(C)=O)c(O)c1)CC2				
91.8	81.2	≥ 95		97	91.8		91.6	2.5	88.4		COc1cc2c(cc1OC)CN(c1ccc(C(=O)O)cc1)CC2				
71.1	8.3	7.6 (≈ 2.29 µg/mL)			0.3		1.2	4.8	23.2		COc1cc2c(cc1OC)C(C)N(c1ccc(F)cc1)CC2 (centres undefined)				
66.9	39.5	78.9 (≈ 21.3 µg/mL)		86	0.2		9.5	3.7	15.5		COc1cc2c(cc1OC)CN(c1cccnc1)CC2				
63.9	21	19.1 (≈ 5.14 µg/mL)		81	0.4		3.7	4.5	10.5		COc1cc2c(cc1OC)CN(c1ccccc1)CC2				
											COc1cc2c(cc1OC)[C@@H](C)NCC2		48		
94.7	43.7	89.6 (≈ 25.6 µg/mL)		107	0.5		22.5	3.2	72.1		COc1cc2c(cc1OC)CN(c1cccc(O)c1)CC2				
77.1	10.1	3.7 (≈ 1.11 µg/mL)		95	1.7		12.1	4.2	53.5		COc1ccc(N2CCc3cc(OC)c(OC)cc3C2)cc1				
97.8	26.8	93.9 (≈ 28.1 µg/mL)		79	64.4		92.6	3.1	79.5		COc1cc2c(cc1OC)CN(c1ccc(CO)cc1)CC2				

SMILES	remaining at 10 min [1] [%]	Papp at 2 h, 25 µM [2] [×10⁻⁶ cm/s]	solubility at 20 min, 100 µM [3] [µM]	IC50 [4] [µM]	activity at 10 µM [5] [%]	remaining at 1 h [6] [%]	IC50 [7] [µM]	remaining at 10 min [8] [%]	logD [9]	remaining at 1 h [10] [%]	IC50 [11] [µM]	Activity (SH-SY5Y) [%]	inhibition (Rattus norvegicus) [%]	IC50 [12] [µM]	IC50 [13] [µM]
COc1cc2c(cc1OC)CNCC2					96									> 1000	> 100

— ChEMBL document CHEMBL5113541, “Design, Synthesis, and Monoamine Oxidase B Selective Inhibitory Activity of N-Arylated Heliamine Analogues” (ACS Med Chem Lett, 2022)
